Experimental data taken from patent US11976137B2, “Compounds for use as apelin receptor antagonists” (Cambridge Enterprise Limited, priority 2018, dated 2024).
“And” between values parts separate entries of the source, which are not always exact repeats. Equal values may be shown once. Read-outs that look alike come from different tables or passages of the source. Positions of bridges follow the written chain, without caps; N, C: chain ends. Non-standard residues stand in square brackets, D forms with d. Residues, ends and D or L forms follow the SMILES beside them. *: point of attachment. Phe(3,4,5-F3) = N[C@@H](Cc1cc(F)c(F)c(F)c1)C(=O)O; Myristoyl = CCCCCCCCCCCCCC(=O)*; Nle = CCCC[C@H](N)C(=O)O; Aib = CC(C)(N)C(=O)O

Experiments:
glioblastoma = details: ref. [60], cited from earlier work; for anti-tumor / anti-cancer effects in glioblastoma: models of glioblastoma
human apelin receptor [1] = molecular target: T1, human apelin receptor (Homo sapiens, UniProt P35414); assay: DRx β-arrestin assay (PathHunter eXpress AGTRL1 CHO-K1); type: cell-based; parameters: host or cells: CHO-K1; details: for Kb: DRx β-Arrestin pA2; for bias between cAMP and β-arrestin pathway inhibition: comparison of β-arrestin and cAMP pA2 of Table 3
T1 sequence (P35414 1-380): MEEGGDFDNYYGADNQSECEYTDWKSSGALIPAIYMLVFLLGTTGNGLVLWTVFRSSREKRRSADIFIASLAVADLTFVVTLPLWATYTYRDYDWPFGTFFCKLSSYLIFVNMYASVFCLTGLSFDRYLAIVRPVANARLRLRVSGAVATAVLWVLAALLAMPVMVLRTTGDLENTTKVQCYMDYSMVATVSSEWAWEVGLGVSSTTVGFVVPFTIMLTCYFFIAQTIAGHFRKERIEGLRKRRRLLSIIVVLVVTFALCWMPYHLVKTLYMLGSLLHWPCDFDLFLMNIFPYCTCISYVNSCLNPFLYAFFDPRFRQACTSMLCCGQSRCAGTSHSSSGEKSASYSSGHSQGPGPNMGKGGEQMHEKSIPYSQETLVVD
Procedure: (§1) cAMP (cAMP Hunter™ eXpress AGTRL1 CHO-K1 GPCR Assay, DiscoverX Corporation, Ltd. Birmingham, UK) and β-arrestin (PathHunter® eXpress AGTRL1 CHO-K1 β-Arrestin GPCR Assay, DiscoverX Corporation, Ltd. Birmingham, UK) assays were performed according to the manufacturer's instructions. The cAMP assay measures the canonical signalling pathway through the G-protein. The β-arrestin assay measures the alternative signalling pathway and receptor internalisation.
For recruitment of β-arrestin, CHO-K1 cells artificially expressing the human apelin receptor were seeded in Cell Plating medium into 96-well plates and incubated for 48 hours at 37° C. in 5% CO2. Concentration response curves were constructed to test peptides (1 pmol/L-30 μmol/L) which were diluted in Cell Plating medium and added to the cells for 90 minutes at 37° C. If no response was obtained then test peptides were investigated as antagonists. […] Detection reagents were then added for a 2-hour incubation at room temperature. […] If no agonist response was obtained, test compounds were investigated for antagonist activity by repeating [Pyr]apelin-13 concentration response curves in the absence and presence of a single concentration (1-30 μmol/L of test peptide). Data were analysed as described for the cAMP assay using the Gaddum/Schild EC50 function in GraphPad Prism 6 to determine values of pA2.

human forearm = assay: Human forearm studies; type: in vivo
human apelin receptor [2] = molecular target: T1, human apelin receptor; assay: Cerep radioligand binding assay on CHO-K1 cells expressing the human apelin receptor; parameters: host or cells: CHO-K1
Procedure: Binding assays were performed by Cerep (Celle L'Evescault, France) on Chinese Hamster Ovary (CHO-K1) cells expressing the human apelin receptor. […] The results were expressed as a percent of control specific binding ((measured specific binding/control specific binding)×100) and as a percent inhibition of control specific binding (100−((measured specific binding/control specific binding)×100)) obtained in the presence of the test compounds. […] The inhibition constants (Ki) were calculated using the Cheng Prusoff equation (Ki=IC50/(1+(L/KD)), where L=concentration of radioligand in the assay, and KD=equilibrium dissociation constant of the radioligand for the receptor).

human apelin receptor [3] = molecular target: T1, human apelin receptor; assay: Competition binding in homogenate of human left ventricle (HLV)
Procedure: Equilibrium was broken by centrifugation (20,000 g for 10 min, 4° C.). Pellets were washed with Tris-HCl buffer (50 mmol/L, pH 7.4, 4° C.), re-centrifuged and bound radioactivity in the final pellets counted. Data from triplicate experiments were analysed using the iterative non-linear curve fitting programs EBDA and LIGAND (KELL package, Biosoft, UK) or GraphPad Prism 6 to derive values of affinity (expressed as either the equilibrium dissociation constant KD or the negative log10 of the dissociation constant, pKi±sem) and receptor density (BMAX±sem in fmoles bound per mg protein).

human apelin receptor [4] = molecular target: T1, human apelin receptor; assay: DRx cAMP assay (cAMP Hunter eXpress AGTRL1 CHO-K1), forskolin-induced cAMP accumulation; type: cell-based; parameters: host or cells: CHO-K1; details: for Kb: DRx cAMP pA2, antagonism of [Pyr1]apelin-13 inhibition of forskolin-stimulated cAMP; for DRx cAMP pA2: antagonism of [Pyr1]apelin-13 inhibition of forskolin-stimulated cAMP
Procedure: Antagonist activity at the apelin receptor was measured in two assays.
as §1
Cells were then incubated with a mixture of Lysis Buffer, cAMP Buffer D and Detection Reagents for 1 hour at room temperature, followed by a 3 hour incubation with cAMP Reagent A at room temperature. Chemiluminescence was read using the LumiLITE™ Microplate Reader (DiscoverX). Concentration-response data for agonists, measured in relative light units (RLU), were analysed using a 4 parameter logistic equation in GraphPad Prism 6 (La Jolla, CA, USA) to determine values of potency expressed as the pD2 value (negative logo of the EC50 (where EC50 is the concentration producing half maximal response)), and maximum response (EMAX). Mean data from replicate experiments were normalised as percentage inhibition of forskolin-stimulated cAMP production.

[5] = system: endothelium-denuded saphenous vein; details: human tissue, ref. [15]; cited from earlier work
human apelin receptor [6] = molecular target: T1, human apelin receptor; details: human cardiac tissue, ref. [15]; cited from earlier work
[7] = [Glp65,Nle75,Tyr77][125I]apelin-13, read-out: Ki (binding affinity at the apelin receptor, Cerep)

| Compound | DRx β-Arrestin pA2 (human apelin receptor [1]) | Kb (human apelin receptor [1]) | Ki (human apelin receptor [2]; [7]) | Kb (human apelin receptor [4]) | DRx cAMP pA2 (human apelin receptor [4]) | anti-tumor / anti-cancer effects in glioblastoma (glioblastoma) | bias between cAMP and β-arrestin pathway inhibition (human apelin receptor [1]) | further results |
| --- | --- | --- | --- | --- | --- | --- | --- | --- |
| CC(C)C[C@@H]1NC(=O)[C@H](CCCNC(=N)N)NC(=O)[C@@H]2CCCN2C(=O)[C@H](CCCNC(=N)N)NC(=O)[C@@H](NC(=O)[C@H](Cc2c[nH]cn2)NC(=O)[C@H](CCCCN)NC(=O)[C@@H]2CSSC[C@H](N)C(=O)N[C@@H](CCCNC(=N)N)C(=O)N3CCC[C@H]3C(=O)N[C@@H](CCCNC(=N)N)C(=O)N[C@@H](CC(C)C)C(=O)N2)CSSC[C@@H](C(=O)O)NC1=O [MM54, cyclo(1-6)CRPRLC-KH-cyclo(9-14)CRPRLC] (H-CRPRLCKHCRPRLC-OH; disulfide 1-6, 9-14; N-terminus and C-terminus assumed) | 6.63 | 117 nM and 234 nM | – | – | – | anti-tumor properties | – | combination with the anti-cancer compound tomozolomide (glioblastoma; model of glioblastoma): synergistic properties; functional activity in human forearm studies (human forearm): functional agonist activity indicated by vasodilation; Ki (human apelin receptor [2]; Ki (binding affinity at the apelin receptor, Cerep), [Glp65,Nle75,Tyr77][125I]apelin-13): 82 nM; Ki (human apelin receptor [3]; HLV pKi): 275 nM and 355 nM |
| Apelin-13(F13A): apelin-13 analogue reported as a functional antagonist, may act as an apelin receptor agonist in vitro | – | – | – | – | – | – | – | constriction of endothelium-denuded saphenous vein [5]: effectively constricts; competition for binding with [125I]-(Pyr1)apelin-13 in the left ventricle (human apelin receptor [6]): competes for binding |

Second part, led by results:

| DRx β-Arrestin pA2 (human apelin receptor [1]) | Kb (human apelin receptor [1]) | Ki (human apelin receptor [2]; [7]) | Kb (human apelin receptor [4]) | DRx cAMP pA2 (human apelin receptor [4]) | Compound | anti-tumor / anti-cancer effects in glioblastoma (glioblastoma) | bias between cAMP and β-arrestin pathway inhibition (human apelin receptor [1]) | further results |
| --- | --- | --- | --- | --- | --- | --- | --- | --- |
| 7.68 | 20.9 nM | 19 nM | 42.7 nM and 77.6 nM | 7.37 | CCCC[C@H](NC(=O)[C@H](CCCNC(=N)N)NC(=O)C(C)(C)NC(=O)[C@H](CCCNC(=N)N)NC(=O)[C@H](CS)NC(=O)[C@H](Cc1c[nH]cn1)NC(=O)[C@H](CCCCN)NC(=O)[C@H](CS)NC(=O)[C@H](CCCC)NC(=O)[C@H](CCCNC(=N)N)NC(=O)[C@@H]1CCCN1C(=O)[C@H](CCCNC(=N)N)NC(=O)[C@@H](N)CS)C(=O)N[C@@H](Cc1cc(F)c(F)c(F)c1)C(=O)O [MM193, CRPR-Nle-CKHCR-Aib-R-Nle-(3,4,5-trifluorophenylalanine)] (H-CRPR[Nle]CKHCR[Aib]R[Nle][Phe(3,4,5-F3)]-OH) | significant anti-cancer effects | – | antagonism of [pyr1]apelin-13 mediated β-arrestin recruitment (human apelin receptor [1]; 1 μM, FIG. 1a): antagonised by addition of MM193 in a competitive manner; DRx β-Arrestin pA2 (human apelin receptor [1]; cho-k1 cells, 90 min): pA2 = 7.68; Ki (human apelin receptor [3]; read-out: HLV pKi (converted)): 759 nM; antagonism of [pyr1]apelin-13 inhibition of forskolin stimulated cAMP accumulation (human apelin receptor [4]; 1 μM, FIG. 1b): antagonised by addition of MM193 in a competitive manner |
| 8.96 | 1.1 nM and 3.16 nM | 13 nM | – | 9.66 | CCCCCCCCCCCCCC(=O)N[C@@H](CS)C(=O)N[C@@H](CCCNC(=N)N)C(=O)N1CCC[C@H]1C(=O)N[C@@H](CCCNC(=N)N)C(=O)N[C@@H](CCCC)C(=O)N[C@@H](CS)C(=O)N[C@@H](CCCCN)C(=O)N[C@@H](Cc1c[nH]cn1)C(=O)N[C@@H](CS)C(=O)N[C@@H](CCCNC(=N)N)C(=O)NC(C)(C)C(=O)N[C@@H](CCCNC(=N)N)C(=O)N[C@@H](CCCC)C(=O)N[C@@H](Cc1cc(F)c(F)c(F)c1)C(=O)O [MM300, Myristoyl-CRPR-Nle-CKHCR-Aib-R-Nle-(3,4,5-trifluorophenylalanine)] (Myristoyl-CRPR[Nle]CKHCR[Aib]R[Nle][Phe(3,4,5-F3)]-OH; C-terminus assumed) | – | bias towards either C-AMP | – |
| – | 2.69 nM and 2.29 nM | 17 nM | 20 nM and 55 nM | – | CCCC[C@H](NC(=O)[C@H](CCCNC(=N)N)NC(=O)C(C)(C)NC(=O)[C@H](CCCNC(=N)N)NC(=O)[C@H](CS)NC(=O)[C@H](CCCCN)NC(=O)[C@H](Cc1c[nH]cn1)NC(=O)[C@H](CS)NC(=O)[C@H](CCCC)NC(=O)[C@H](CCCNC(=N)N)NC(=O)[C@@H]1CCCN1C(=O)[C@H](CCCNC(=N)N)NC(=O)[C@@H](N)CS)C(=O)N[C@@H](Cc1cc(F)c(F)c(F)c1)C(=O)O [MM302, CRPR-Nle-CHKCR-Aib-R-Nle-(3,4,5-trifluorophenylalanine)] (H-CRPR[Nle]CHKCR[Aib]R[Nle][Phe(3,4,5-F3)]-OH; N-terminus and C-terminus assumed) | – | almost a log unit of bias towards inhibition of the β-arrestin pathway | – |
